Measurements published in PubChem BioAssay (NCI).
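Exposure lasted 48 hours, with cells grown in 96-well plates and compounds tested at five concentrations. GI50 is the concentration that inhibits growth by half. TGI marks complete inhibition of growth.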

What was measured:
Test in all cases: NCI anticancer screen, dose series, 48 h
786-0 renal = system: 786-0 renal
MDA-N = system: MDA-N
HCT-116 colon = system: HCT-116 colon
HS 578T breast = system: HS 578T breast
EKVX NSCLC = system: EKVX NSCLC
HOP-62 NSCLC = system: HOP-62 NSCLC
KM12 colon = system: KM12 colon
OVCAR-8 ovarian = system: OVCAR-8 ovarian
SW-620 colon = system: SW-620 colon
MCF7 breast = system: MCF7 breast
PC-3 prostate = system: PC-3 prostate
RPMI-8226 leukemia = system: RPMI-8226 leukemia
SN12C renal = system: SN12C renal
MALME-3M melanoma = system: MALME-3M melanoma

| Structure (SMILES) | TGI (786-0 renal) [µM] | TGI (MDA-N) [µM] | TGI (HCT-116 colon) [µM] | TGI (HS 578T breast) [µM] | TGI (EKVX NSCLC) [µM] | TGI (HOP-62 NSCLC) [µM] | TGI (KM12 colon) [µM] | TGI (OVCAR-8 ovarian) [µM] | TGI (SW-620 colon) [µM] | TGI (MCF7 breast) [µM] | TGI (PC-3 prostate) [µM] | TGI (RPMI-8226 leukemia) [µM] | TGI (SN12C renal) [µM] | TGI (MALME-3M melanoma) [µM] | GI50 (RPMI-8226 leukemia) [µM] |
| --- | --- | --- | --- | --- | --- | --- | --- | --- | --- | --- | --- | --- | --- | --- | --- |
| C(=N/Nc1ccc(-c2nc3ccccc3[nH]2)cc1)/c1c(-c2ccccc2)[nH]c2ccccc12 | > 100 | 0.185 | 16.8 | 0.889 | > 100 | 30.9 | > 100 | > 100 | 75 | > 100 | 3.92 | 0.82 |  |  |  |
| OC(c1ccco1)C(F)(F)c1nc2ccccc2o1 (configuration not stated) | > 100 |  | > 100 | > 100 | > 100 | > 100 | > 100 | > 100 | > 100 | > 100 | > 100 | > 100 |  |  |  |
| NNC(=O)c1cccc2c1Oc1ccccc1S2 | > 100 |  | > 100 | > 100 | > 100 | > 100 | > 100 | > 100 | > 100 | > 100 | > 100 | > 100 |  |  |  |
| COC(=O)c1sc2ncc3c(c2c1N)CC(C)CC3 (configuration not stated) | > 100 | > 100 | > 100 |  | > 100 | > 100 | > 100 |  | > 100 | > 100 | > 100 | > 100 | > 100 | > 100 |  |
| Brc1ccc2c(c1)-c1nc3c(cc1CC2)CCc1ccc(Br)cc1-3 | > 100 | > 100 | > 100 |  | > 100 | > 100 | > 100 | > 100 | > 100 | > 100 | > 100 | > 100 | > 100 | > 100 |  |
| CCCC[C@@H]1CCN2C[C@@H](O)[C@@H](O)[C@H]2[C@@H]1O | > 100 |  | > 100 | > 100 | > 100 |  | > 100 | > 100 | > 100 | > 100 | > 100 | > 100 |  | > 100 |  |
| O=c1oc2ccccc2c2nc3ccccc3cc12 | 80.4 | > 100 | > 100 | 66.7 | > 100 |  | > 100 | > 100 | > 100 |  | > 100 | > 100 | > 100 | > 100 |  |
| COc1cc(CCCOC2OC(COC3OCC(O)C(O)C3O)C(O)C(O)C2O)cc2cc(-c3ccc4c(c3)OCO4)oc12 (configuration not stated) |  |  | > 175 |  | > 175 | > 175 | > 175 | 109 | > 175 | > 175 |  | > 175 | 99.5 | > 175 |  |
| CCN(CC)C(=S)SS(=O)(=O)c1ccc(C)cc1 | 50.5 | > 100 |  | > 100 | > 100 | 85.5 | 30.6 | 40.2 | 45.2 |  |  |  | 49.7 | 41.9 |  |
| O=c1cc(-c2ccccc2F)[nH]c2cc3c(cc12)OCO3 | 28.8 | 0.0396 | > 58.5 |  |  | > 21 | 17.1 |  | > 100 | > 50.9 | > 100 |  | > 27.1 | > 47.3 |  |
| CCOC(=O)c1csc(NC(=O)CCCC#N)n1 |  | > 100 |  | > 100 |  | > 100 | > 100 | > 100 | > 100 | > 100 | > 100 | > 100 |  |  |  |
| COc1cc2c(cc1OCCCOc1cc3c(cc1OC)C(=O)N1CCC[C@H]1CN3)N=C[C@@H]1CCCN1C2=O | 2.18 |  |  |  | > 49 | 0.892 | 0.327 | 1.28 | > 32.4 |  | 8.4 | 0.654 | > 33 | 0.268 | 0.156 |
| COc1cc(OC)c(C2c3cc4c(cc3OC(N3CCOCC3)C2C)OCO4)c(OC)c1 (configuration not stated) | > 100 | > 100 | > 100 | 20.5 | > 100 | > 100 | > 100 | > 100 | > 100 | > 100 | > 100 | > 100 | > 100 |  |  |
| COC(=O)c1cc(C(=O)OC)cc(-c2ccc3c(c2)-c2nc4c(c(-c5ccc(OC)cc5)c2CC3)CCc2ccc(-c3cc(C(=O)OC)cc(C(=O)OC)c3)cc2-4)c1 | > 100 | > 100 | > 100 |  | 31.3 | > 100 | > 100 |  |  | > 100 | > 100 | > 100 | > 100 | > 100 |  |
| Cc1ccc(C(=O)c2[nH]c(Nc3cc(C)ccn3)c(C(=S)Nc3ccccc3)c2N)cc1 | > 100 | > 100 | > 100 | > 100 | > 100 | > 100 | > 100 | > 100 | > 100 | > 100 |  |  | > 100 | > 100 |  |
| CCC1C(=O)OCc2c1cc1n(c2=O)CCC12OCCO2 (configuration not stated) | > 100 |  | > 100 |  | > 100 | > 100 | > 100 | > 100 | > 100 |  |  | > 100 | > 100 |  |  |
| CCNC(=S)N/N=C/c1ccccn1 | > 100 | > 100 | 73.7 | > 100 | > 100 | 54 | > 100 | > 100 | > 100 |  | > 100 |  | 41 | > 100 |  |
| C=C1CC2C(=O)N(c3ccccc3)C(=O)C2CC1n1[nH]c(=O)n(Cc2ccccc2)c1=O (configuration not stated) | > 100 |  | > 100 |  | > 100 | > 100 | > 100 | > 100 | > 100 |  |  | > 100 | > 100 | > 100 |  |
| CC/C=C\C/C=C\C/C=C\CCCCCCCC(=O)OC(COC(=O)CCCCCCCCCCCCCCCCC)COC1OC(CO)C(O)C(O)C1O (configuration not stated) | > 25 | > 25 | > 25 | 18.5 | > 25 | > 25 | > 25 | > 25 | > 25 | > 25 | > 25 | > 25 | > 25 |  |  |
| NC(=S)N=Nc1c(O)cc(Nc2ccc(Cl)cc2Cl)c2ccccc12 | 26.3 | > 100 | > 100 |  | 94.4 | 22.4 | > 100 | 93.9 | > 100 | > 100 |  |  | > 100 |  |  |
